Target: Cyclin-dependent kinase 6 (Homo sapiens) (UniProt Q00534)
Sequence (Q00534 whole entry): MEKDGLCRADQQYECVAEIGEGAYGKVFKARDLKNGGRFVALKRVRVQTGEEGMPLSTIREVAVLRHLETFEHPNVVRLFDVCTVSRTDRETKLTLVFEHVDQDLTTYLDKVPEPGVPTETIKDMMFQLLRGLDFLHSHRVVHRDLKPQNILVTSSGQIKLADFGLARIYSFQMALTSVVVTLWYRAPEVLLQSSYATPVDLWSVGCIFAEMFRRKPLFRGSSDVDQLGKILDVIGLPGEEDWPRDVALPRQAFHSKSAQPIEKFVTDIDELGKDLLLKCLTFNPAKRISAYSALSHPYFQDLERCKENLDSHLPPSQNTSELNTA

ΔTm [°C] | SMILES
0.2 | CCOc1cc2ncnc(Nc3cccc(Br)c3)c2cc1OCC
0 | Cc1nc2sccn2c(=O)c1CCN1CCC(=C(c2ccccc2)c2ccc(F)cc2)CC1
0.3 | N#C/C(=C(/N)Sc1ccc(N)cc1)c1ccccc1C(F)(F)F

SMILES | ΔTm [°C]
CC(C)(C)n1nc(-c2ccc(Cl)cc2)c2c(N)ncnc21 | -0.4

Target: Mitogen-activated protein kinase 11 (Homo sapiens, UniProt Q15759)

ΔTm [°C] | SMILES
2.2 | CCOc1cc2ncnc(Nc3cccc(Br)c3)c2cc1OCC
-0.7 | Cc1nc2sccn2c(=O)c1CCN1CCC(=C(c2ccccc2)c2ccc(F)cc2)CC1
0 | N#C/C(=C(/N)Sc1ccc(N)cc1)c1ccccc1C(F)(F)F

SMILES | ΔTm [°C]
CC(C)(C)n1nc(-c2ccc(Cl)cc2)c2c(N)ncnc21 | 4.6

Target: Serine/threonine-protein kinase 26 (Homo sapiens) (UniProt Q9P289)
Sequence (Q9P289 2-416 limits assumed): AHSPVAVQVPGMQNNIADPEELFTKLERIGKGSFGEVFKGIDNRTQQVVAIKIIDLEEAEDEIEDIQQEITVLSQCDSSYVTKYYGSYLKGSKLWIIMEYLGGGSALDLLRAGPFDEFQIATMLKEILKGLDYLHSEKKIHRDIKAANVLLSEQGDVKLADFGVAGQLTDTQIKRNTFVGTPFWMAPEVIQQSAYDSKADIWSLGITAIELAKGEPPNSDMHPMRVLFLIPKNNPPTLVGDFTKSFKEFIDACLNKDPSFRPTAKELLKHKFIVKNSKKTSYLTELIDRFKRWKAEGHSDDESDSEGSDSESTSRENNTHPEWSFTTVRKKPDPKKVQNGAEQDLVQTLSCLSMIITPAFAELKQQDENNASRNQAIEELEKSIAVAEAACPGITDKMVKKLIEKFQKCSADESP

ΔTm [°C] | SMILES
0.8 | CCOc1cc2ncnc(Nc3cccc(Br)c3)c2cc1OCC
0.4 | Cc1nc2sccn2c(=O)c1CCN1CCC(=C(c2ccccc2)c2ccc(F)cc2)CC1
1 | N#C/C(=C(/N)Sc1ccc(N)cc1)c1ccccc1C(F)(F)F

SMILES | ΔTm [°C]
CC(C)(C)n1nc(-c2ccc(Cl)cc2)c2c(N)ncnc21 | -0.3

Target: Glycogen synthase kinase-3 beta (Homo sapiens, UniProt P49841)
Sequence (P49841 whole entry, looked up): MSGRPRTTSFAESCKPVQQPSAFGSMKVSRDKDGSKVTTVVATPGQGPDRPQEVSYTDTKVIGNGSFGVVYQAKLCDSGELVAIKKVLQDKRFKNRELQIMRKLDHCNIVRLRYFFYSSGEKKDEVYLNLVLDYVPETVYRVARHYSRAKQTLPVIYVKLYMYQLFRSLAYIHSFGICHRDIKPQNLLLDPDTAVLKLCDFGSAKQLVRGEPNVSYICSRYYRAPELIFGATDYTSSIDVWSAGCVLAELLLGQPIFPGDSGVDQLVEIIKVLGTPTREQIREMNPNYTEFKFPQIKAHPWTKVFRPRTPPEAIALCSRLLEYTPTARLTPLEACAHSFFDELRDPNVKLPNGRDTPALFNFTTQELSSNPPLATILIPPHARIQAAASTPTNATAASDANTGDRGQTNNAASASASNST

ΔTm [°C] | SMILES
2.8 | CCOc1cc2ncnc(Nc3cccc(Br)c3)c2cc1OCC
2.6 | Cc1nc2sccn2c(=O)c1CCN1CCC(=C(c2ccccc2)c2ccc(F)cc2)CC1
-0.1 | N#C/C(=C(/N)Sc1ccc(N)cc1)c1ccccc1C(F)(F)F

SMILES | ΔTm [°C]
CC(C)(C)n1nc(-c2ccc(Cl)cc2)c2c(N)ncnc21 | 0.5

Target: Cyclin-dependent kinase-like 1 (Homo sapiens) (UniProt Q00532)
Sequence (Q00532 whole entry): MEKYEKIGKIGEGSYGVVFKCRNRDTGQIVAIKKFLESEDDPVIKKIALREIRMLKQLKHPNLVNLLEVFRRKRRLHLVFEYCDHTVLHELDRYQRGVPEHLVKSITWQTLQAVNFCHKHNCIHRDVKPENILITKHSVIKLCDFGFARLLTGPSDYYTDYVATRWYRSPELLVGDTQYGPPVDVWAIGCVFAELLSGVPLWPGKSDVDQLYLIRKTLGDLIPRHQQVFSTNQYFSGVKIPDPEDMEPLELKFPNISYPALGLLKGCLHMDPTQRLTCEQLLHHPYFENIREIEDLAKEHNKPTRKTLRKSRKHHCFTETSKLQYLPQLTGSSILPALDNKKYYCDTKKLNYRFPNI

ΔTm [°C] | SMILES
0 | CCOc1cc2ncnc(Nc3cccc(Br)c3)c2cc1OCC
0.4 | Cc1nc2sccn2c(=O)c1CCN1CCC(=C(c2ccccc2)c2ccc(F)cc2)CC1
-0.2 | N#C/C(=C(/N)Sc1ccc(N)cc1)c1ccccc1C(F)(F)F

SMILES | ΔTm [°C]
CC(C)(C)n1nc(-c2ccc(Cl)cc2)c2c(N)ncnc21 | -0.4

Target: T1, 3-phosphoinositide-dependent protein kinase 1 (Homo sapiens) (UniProt O15530)
T1 sequence (whole entry): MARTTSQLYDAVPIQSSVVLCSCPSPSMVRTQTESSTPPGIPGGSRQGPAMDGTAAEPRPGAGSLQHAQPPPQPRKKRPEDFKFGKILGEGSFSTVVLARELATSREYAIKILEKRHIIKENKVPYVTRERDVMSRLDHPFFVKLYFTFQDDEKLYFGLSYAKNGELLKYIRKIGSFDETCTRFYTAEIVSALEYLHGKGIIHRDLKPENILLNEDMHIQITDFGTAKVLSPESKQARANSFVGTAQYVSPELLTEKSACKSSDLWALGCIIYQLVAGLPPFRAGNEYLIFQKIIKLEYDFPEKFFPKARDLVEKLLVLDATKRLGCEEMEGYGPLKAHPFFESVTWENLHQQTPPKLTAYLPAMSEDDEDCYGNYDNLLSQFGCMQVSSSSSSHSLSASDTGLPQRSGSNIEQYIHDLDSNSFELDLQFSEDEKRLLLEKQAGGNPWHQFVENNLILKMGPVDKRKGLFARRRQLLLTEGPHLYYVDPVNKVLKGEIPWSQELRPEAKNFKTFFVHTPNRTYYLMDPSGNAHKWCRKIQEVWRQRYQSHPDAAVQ

ΔTm [°C] | SMILES
-0.9 | CCOc1cc2ncnc(Nc3cccc(Br)c3)c2cc1OCC
-0.8 | Cc1nc2sccn2c(=O)c1CCN1CCC(=C(c2ccccc2)c2ccc(F)cc2)CC1
-0.1 | N#C/C(=C(/N)Sc1ccc(N)cc1)c1ccccc1C(F)(F)F

SMILES | ΔTm [°C]
CC(C)(C)n1nc(-c2ccc(Cl)cc2)c2c(N)ncnc21 | -0.1

Target: Calcium/calmodulin-dependent protein kinase type 1D (Homo sapiens) (UniProt Q8IU85)
Sequence (Q8IU85 whole entry, looked up): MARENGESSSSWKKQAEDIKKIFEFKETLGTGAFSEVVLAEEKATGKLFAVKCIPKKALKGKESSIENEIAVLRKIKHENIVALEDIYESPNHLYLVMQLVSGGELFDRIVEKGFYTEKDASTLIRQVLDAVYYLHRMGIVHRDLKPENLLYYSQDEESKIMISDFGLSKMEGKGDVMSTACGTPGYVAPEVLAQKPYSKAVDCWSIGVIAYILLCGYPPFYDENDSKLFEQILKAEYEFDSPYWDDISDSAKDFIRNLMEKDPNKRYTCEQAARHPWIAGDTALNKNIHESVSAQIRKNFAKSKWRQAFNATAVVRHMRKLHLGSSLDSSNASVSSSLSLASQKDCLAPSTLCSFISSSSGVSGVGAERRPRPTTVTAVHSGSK

ΔTm [°C] | SMILES
0.7 | CCOc1cc2ncnc(Nc3cccc(Br)c3)c2cc1OCC
0.5 | Cc1nc2sccn2c(=O)c1CCN1CCC(=C(c2ccccc2)c2ccc(F)cc2)CC1
0.3 | N#C/C(=C(/N)Sc1ccc(N)cc1)c1ccccc1C(F)(F)F

SMILES | ΔTm [°C]
CC(C)(C)n1nc(-c2ccc(Cl)cc2)c2c(N)ncnc21 | -0.2

Target: Ribosomal protein S6 kinase alpha-3 (Homo sapiens) (UniProt P51812)
Sequence (P51812 whole entry): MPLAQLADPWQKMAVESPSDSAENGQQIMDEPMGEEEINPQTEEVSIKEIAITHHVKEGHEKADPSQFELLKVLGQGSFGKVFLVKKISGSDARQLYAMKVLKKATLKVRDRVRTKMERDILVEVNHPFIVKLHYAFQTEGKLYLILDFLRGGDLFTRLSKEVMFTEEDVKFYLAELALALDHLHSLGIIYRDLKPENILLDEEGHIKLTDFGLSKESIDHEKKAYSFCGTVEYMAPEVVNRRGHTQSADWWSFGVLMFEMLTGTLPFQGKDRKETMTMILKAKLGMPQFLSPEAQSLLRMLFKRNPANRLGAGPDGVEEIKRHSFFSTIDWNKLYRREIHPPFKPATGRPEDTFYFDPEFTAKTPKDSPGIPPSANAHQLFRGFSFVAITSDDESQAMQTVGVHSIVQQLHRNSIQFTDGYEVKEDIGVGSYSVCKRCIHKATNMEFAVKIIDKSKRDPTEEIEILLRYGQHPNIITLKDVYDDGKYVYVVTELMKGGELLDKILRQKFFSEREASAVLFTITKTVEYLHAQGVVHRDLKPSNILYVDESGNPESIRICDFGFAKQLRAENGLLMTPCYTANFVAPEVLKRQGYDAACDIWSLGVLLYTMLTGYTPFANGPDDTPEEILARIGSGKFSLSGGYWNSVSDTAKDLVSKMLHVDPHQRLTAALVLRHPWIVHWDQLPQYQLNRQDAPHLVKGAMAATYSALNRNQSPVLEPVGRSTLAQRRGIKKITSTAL

ΔTm [°C] | SMILES
0.2 | CCOc1cc2ncnc(Nc3cccc(Br)c3)c2cc1OCC
2.9 | Cc1nc2sccn2c(=O)c1CCN1CCC(=C(c2ccccc2)c2ccc(F)cc2)CC1
-0.1 | N#C/C(=C(/N)Sc1ccc(N)cc1)c1ccccc1C(F)(F)F

SMILES | ΔTm [°C]
CC(C)(C)n1nc(-c2ccc(Cl)cc2)c2c(N)ncnc21 | 0.4

Target: Dual specificity protein kinase CLK1 (Homo sapiens) (UniProt P49759)

ΔTm [°C] | SMILES
2 | CCOc1cc2ncnc(Nc3cccc(Br)c3)c2cc1OCC
6.5 | Cc1nc2sccn2c(=O)c1CCN1CCC(=C(c2ccccc2)c2ccc(F)cc2)CC1
0.1 | N#C/C(=C(/N)Sc1ccc(N)cc1)c1ccccc1C(F)(F)F

SMILES | ΔTm [°C]
CC(C)(C)n1nc(-c2ccc(Cl)cc2)c2c(N)ncnc21 | 2.1

Target: T2, Serine/threonine-protein kinase Nek2 (Homo sapiens) (UniProt P51955)
T2 sequence (whole entry): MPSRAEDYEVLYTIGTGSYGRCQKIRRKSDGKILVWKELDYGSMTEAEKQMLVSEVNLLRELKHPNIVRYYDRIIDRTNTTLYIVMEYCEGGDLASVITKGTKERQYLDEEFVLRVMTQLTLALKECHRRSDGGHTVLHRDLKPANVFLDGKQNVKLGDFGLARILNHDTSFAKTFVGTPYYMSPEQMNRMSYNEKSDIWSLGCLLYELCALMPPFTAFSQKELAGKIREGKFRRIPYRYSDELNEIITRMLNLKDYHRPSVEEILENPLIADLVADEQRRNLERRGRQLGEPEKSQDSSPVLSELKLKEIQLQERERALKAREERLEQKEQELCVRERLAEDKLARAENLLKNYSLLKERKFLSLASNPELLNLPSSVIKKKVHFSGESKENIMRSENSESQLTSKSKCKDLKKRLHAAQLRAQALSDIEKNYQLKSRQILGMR

ΔTm [°C] | SMILES
1.1 | CCOc1cc2ncnc(Nc3cccc(Br)c3)c2cc1OCC
0.1 | Cc1nc2sccn2c(=O)c1CCN1CCC(=C(c2ccccc2)c2ccc(F)cc2)CC1
1.3 | N#C/C(=C(/N)Sc1ccc(N)cc1)c1ccccc1C(F)(F)F

SMILES | ΔTm [°C]
CC(C)(C)n1nc(-c2ccc(Cl)cc2)c2c(N)ncnc21 | 0.3

Target: Serine/threonine-protein kinase PAK 5 (Homo sapiens) (UniProt Q9P286)
Sequence (Q9P286 whole entry, looked up): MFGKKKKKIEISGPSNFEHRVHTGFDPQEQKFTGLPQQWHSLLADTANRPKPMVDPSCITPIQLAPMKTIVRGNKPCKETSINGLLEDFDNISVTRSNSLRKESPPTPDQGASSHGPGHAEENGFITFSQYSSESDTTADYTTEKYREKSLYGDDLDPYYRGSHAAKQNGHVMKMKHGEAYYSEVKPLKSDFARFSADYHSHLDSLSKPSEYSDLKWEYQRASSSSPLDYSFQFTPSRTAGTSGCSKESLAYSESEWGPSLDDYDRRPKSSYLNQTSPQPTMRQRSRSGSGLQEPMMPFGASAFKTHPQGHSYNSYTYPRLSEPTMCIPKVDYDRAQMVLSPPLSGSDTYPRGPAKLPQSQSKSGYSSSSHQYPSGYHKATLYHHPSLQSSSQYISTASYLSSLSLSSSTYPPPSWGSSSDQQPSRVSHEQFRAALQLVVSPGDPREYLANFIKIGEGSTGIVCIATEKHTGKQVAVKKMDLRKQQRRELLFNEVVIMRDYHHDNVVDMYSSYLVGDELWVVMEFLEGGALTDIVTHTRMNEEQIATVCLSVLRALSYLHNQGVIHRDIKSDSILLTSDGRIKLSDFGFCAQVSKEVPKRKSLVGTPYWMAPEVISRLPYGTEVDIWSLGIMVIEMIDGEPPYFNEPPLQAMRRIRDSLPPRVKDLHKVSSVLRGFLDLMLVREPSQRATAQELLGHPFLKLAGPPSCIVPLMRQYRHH

ΔTm [°C] | SMILES
0.4 | CCOc1cc2ncnc(Nc3cccc(Br)c3)c2cc1OCC
1 | Cc1nc2sccn2c(=O)c1CCN1CCC(=C(c2ccccc2)c2ccc(F)cc2)CC1
0.6 | N#C/C(=C(/N)Sc1ccc(N)cc1)c1ccccc1C(F)(F)F

SMILES | ΔTm [°C]
CC(C)(C)n1nc(-c2ccc(Cl)cc2)c2c(N)ncnc21 | 0.7

Target: Serine/threonine-protein kinase 25 (Homo sapiens) (UniProt O00506)

ΔTm [°C] | SMILES
1.5 | CCOc1cc2ncnc(Nc3cccc(Br)c3)c2cc1OCC
0.3 | Cc1nc2sccn2c(=O)c1CCN1CCC(=C(c2ccccc2)c2ccc(F)cc2)CC1
0 | N#C/C(=C(/N)Sc1ccc(N)cc1)c1ccccc1C(F)(F)F

SMILES | ΔTm [°C]
CC(C)(C)n1nc(-c2ccc(Cl)cc2)c2c(N)ncnc21 | 1.2

Target: Serine/threonine-protein kinase Chk2 (Homo sapiens, UniProt O96017)

ΔTm [°C] | SMILES
2.6 | CCOc1cc2ncnc(Nc3cccc(Br)c3)c2cc1OCC
0.4 | Cc1nc2sccn2c(=O)c1CCN1CCC(=C(c2ccccc2)c2ccc(F)cc2)CC1
0.3 | N#C/C(=C(/N)Sc1ccc(N)cc1)c1ccccc1C(F)(F)F

SMILES | ΔTm [°C]
CC(C)(C)n1nc(-c2ccc(Cl)cc2)c2c(N)ncnc21 | 0.4

Target: Serine/threonine-protein kinase pim-1 (Homo sapiens) (UniProt P11309)
Sequence (P11309 whole entry, looked up): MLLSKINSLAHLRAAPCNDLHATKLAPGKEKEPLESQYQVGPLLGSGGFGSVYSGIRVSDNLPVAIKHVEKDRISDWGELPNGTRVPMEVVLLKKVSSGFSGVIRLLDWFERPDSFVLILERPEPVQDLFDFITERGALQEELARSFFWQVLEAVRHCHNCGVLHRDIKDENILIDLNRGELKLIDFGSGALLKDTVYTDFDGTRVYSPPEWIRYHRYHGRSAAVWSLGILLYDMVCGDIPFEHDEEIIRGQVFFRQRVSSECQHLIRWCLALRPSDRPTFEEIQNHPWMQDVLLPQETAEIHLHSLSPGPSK

ΔTm [°C] | SMILES
0.2 | CCOc1cc2ncnc(Nc3cccc(Br)c3)c2cc1OCC
6.6 | Cc1nc2sccn2c(=O)c1CCN1CCC(=C(c2ccccc2)c2ccc(F)cc2)CC1
-0.2 | N#C/C(=C(/N)Sc1ccc(N)cc1)c1ccccc1C(F)(F)F

SMILES | ΔTm [°C]
CC(C)(C)n1nc(-c2ccc(Cl)cc2)c2c(N)ncnc21 | 0.1

Target: T3, Serine/threonine-protein kinase PLK4 (Homo sapiens) (UniProt O00444)
T3 sequence (whole entry): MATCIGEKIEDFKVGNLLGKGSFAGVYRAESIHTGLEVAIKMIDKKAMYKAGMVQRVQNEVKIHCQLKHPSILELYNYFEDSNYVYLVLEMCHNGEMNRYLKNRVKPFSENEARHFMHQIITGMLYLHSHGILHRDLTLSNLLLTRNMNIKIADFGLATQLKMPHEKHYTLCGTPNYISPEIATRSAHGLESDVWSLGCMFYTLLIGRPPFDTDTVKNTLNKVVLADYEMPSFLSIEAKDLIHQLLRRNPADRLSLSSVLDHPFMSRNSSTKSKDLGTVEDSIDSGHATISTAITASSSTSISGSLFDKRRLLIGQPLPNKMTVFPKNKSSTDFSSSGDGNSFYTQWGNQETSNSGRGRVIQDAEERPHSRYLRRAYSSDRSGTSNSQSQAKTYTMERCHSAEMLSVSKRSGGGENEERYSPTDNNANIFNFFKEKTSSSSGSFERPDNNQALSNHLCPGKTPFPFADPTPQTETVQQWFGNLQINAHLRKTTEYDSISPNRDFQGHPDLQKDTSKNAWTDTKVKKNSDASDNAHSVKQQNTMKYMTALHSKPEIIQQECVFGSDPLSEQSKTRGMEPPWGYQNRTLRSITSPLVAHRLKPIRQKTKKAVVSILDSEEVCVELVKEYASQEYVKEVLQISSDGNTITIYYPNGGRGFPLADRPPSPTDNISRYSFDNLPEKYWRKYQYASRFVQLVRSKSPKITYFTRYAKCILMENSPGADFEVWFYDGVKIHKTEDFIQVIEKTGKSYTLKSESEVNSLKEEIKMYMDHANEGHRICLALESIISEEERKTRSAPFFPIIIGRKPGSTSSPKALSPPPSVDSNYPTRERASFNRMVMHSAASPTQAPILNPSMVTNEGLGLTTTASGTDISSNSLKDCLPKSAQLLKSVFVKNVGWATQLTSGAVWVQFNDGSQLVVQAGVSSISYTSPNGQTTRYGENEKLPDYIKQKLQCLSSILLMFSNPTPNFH

ΔTm [°C] | SMILES
3.8 | CCOc1cc2ncnc(Nc3cccc(Br)c3)c2cc1OCC
2.8 | Cc1nc2sccn2c(=O)c1CCN1CCC(=C(c2ccccc2)c2ccc(F)cc2)CC1
0.1 | N#C/C(=C(/N)Sc1ccc(N)cc1)c1ccccc1C(F)(F)F

SMILES | ΔTm [°C]
CC(C)(C)n1nc(-c2ccc(Cl)cc2)c2c(N)ncnc21 | 4.1

Target: STE20-like serine/threonine-protein kinase (Homo sapiens) (UniProt Q9H2G2)
Sequence (Q9H2G2 whole entry, looked up): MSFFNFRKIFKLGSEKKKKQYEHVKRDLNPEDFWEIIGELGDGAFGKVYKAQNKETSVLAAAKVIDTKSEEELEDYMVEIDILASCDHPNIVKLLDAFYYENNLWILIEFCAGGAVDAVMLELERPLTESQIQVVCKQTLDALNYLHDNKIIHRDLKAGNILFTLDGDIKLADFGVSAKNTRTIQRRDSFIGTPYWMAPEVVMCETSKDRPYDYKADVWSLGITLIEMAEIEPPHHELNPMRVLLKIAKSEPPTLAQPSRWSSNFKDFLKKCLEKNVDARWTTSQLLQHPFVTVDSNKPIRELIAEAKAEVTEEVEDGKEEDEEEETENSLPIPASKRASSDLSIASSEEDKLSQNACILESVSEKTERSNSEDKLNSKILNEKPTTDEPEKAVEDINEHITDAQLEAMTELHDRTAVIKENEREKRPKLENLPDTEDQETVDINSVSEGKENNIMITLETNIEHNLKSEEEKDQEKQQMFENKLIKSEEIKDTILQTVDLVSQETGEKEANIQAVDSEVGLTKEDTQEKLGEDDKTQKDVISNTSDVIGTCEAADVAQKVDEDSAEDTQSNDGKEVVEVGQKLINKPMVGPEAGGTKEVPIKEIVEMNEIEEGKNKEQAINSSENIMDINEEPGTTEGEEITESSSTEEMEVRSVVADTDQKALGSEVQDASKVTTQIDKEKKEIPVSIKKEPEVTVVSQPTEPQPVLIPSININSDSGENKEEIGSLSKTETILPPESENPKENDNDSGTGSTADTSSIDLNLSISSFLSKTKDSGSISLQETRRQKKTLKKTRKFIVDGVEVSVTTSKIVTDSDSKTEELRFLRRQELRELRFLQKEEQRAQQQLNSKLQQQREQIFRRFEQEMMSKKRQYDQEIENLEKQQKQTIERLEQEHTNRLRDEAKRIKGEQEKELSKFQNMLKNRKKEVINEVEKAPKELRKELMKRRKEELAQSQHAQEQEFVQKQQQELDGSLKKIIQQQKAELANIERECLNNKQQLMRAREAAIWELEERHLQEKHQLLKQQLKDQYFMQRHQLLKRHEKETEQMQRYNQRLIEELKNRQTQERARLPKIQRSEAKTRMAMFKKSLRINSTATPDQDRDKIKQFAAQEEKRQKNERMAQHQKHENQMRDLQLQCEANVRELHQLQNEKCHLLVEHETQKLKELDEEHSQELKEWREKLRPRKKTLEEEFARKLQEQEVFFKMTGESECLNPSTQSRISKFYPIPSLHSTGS

ΔTm [°C] | SMILES
7.9 | CCOc1cc2ncnc(Nc3cccc(Br)c3)c2cc1OCC
1 | Cc1nc2sccn2c(=O)c1CCN1CCC(=C(c2ccccc2)c2ccc(F)cc2)CC1
0 | N#C/C(=C(/N)Sc1ccc(N)cc1)c1ccccc1C(F)(F)F

SMILES | ΔTm [°C]
CC(C)(C)n1nc(-c2ccc(Cl)cc2)c2c(N)ncnc21 | 3.6

Source: ChEMBL document CHEMBL1145498, “A systematic interaction map of validated kinase inhibitors with Ser/Thr kinases” (Proc Natl Acad Sci U S A, 2007)
